Results reported in patent US20230365585A1, “BENZODIAZEPINE DERIVATIVES USEFUL IN TREATING A RESPIRATORY SYNCYTIAL VIRUS INFECTION” (priority 2020, published 2023).

Key:
[1] = tested on: RSV A2; assay: RSV plaque reduction assay; type: cell-based, RSV (RSV A2 ECACC, 0709161v); details: Hep-G2 cells, RSV A2, 2 days, mean of at least two experiments
Description: Compounds were subjected to RSV plaque reduction assays according to the following protocol.
Hep-G2 cells (ECACC, 85011430) were passaged in flasks and seeded in 24-well plates in DMEM containing antibiotics and supplemented with 10% FBS. During inoculation and subsequent incubation, cells were cultured in DMEM containing 2% FBS. 100 plaque forming unit/well of RSV (RSV A2 ECACC, 0709161v) was mixed with eight serial dilutions of compound. Subsequently, 100 µL of the virus/compound mixtures was added to confluent Hep-G2 cell monolayers. The cells and virus/compound mixtures were incubated at 37° C. in a humidified 5% CO2 incubator for 2 h prior to removal of the inoculum and addition of 1 mL of overlay (DMEM containing 2% FBS and 0.8% CMC) containing compound dilutions. The cells and were incubated at 37° C. in a humidified 5% CO2 incubator for 2 days.
Cells were washed with PBS before adding 75%/25% v/v EtOH/MeOH, for 3 min. Fix ative was removed and plates were washed with PBS. A pre-titrated amount of the primary antibody was added in 200 µL PBS/2% milk powder, and plates incubated for 90 min at 37° C. The plates were washed 3 times with PBS/0.05% Tween20 before addition of rabbit anti-goat horse radish peroxidase in 200 µL PBS/2% milk powder, and incubated for 1 h at 37° C. Following three wash steps with PBS/0.05% Tween20, 200 µL ready-to-use TrueBlue was added and plates were incubated at rt for 10-15 min before washing with water. After removal of water, plates were air-dried in the dark.
(§1) Plates were scanned and analysed using the Immunospot S6 Macro analyser, which is equipped with BioSpot analysis software for counting immunostained plaques (virospots). Plaque counts were used to calculate % infection relative to the mean of the plaque count in the virus control wells for RSV. […] Plaque EC50 and cell toxicity CC50 values are a mean of at least two experiments and figures are rounded to whole units.

[2] = tested on: Hep-G2 cells; assay: Cell cytotoxicity CC50; type: cell-based; details: mean of at least two experiments
Excerpt: as §1

[3] = Cell cytotoxicity CC50; type: cell-based; details: human; mean of at least two experiments
Excerpt: as §1

[4] = human respiratory syncytial virus, HepG2, 48 h

Row | Molecule | EC50 [1] | CC50 [2] | EC50 [1, 4] | CC50 [3]
1 | 2-(2,4-Difluorophenyl)-5-methyl-N-[(3S)-2-oxo-5-phenyl-1,3-dihydro-1,4-benzodiazepin-3-yl]-5,6,7,8-tetrahydropyrazolo[5,1-b][1,3]oxazepine-3-carboxamide [Example 16] | 0.064 µM | > 25 µM |  | 
2 | CCNc1ccc(-c2nn3c(c2C(=O)N[C@H]2N=C(c4ccccc4)c4ccccc4NC2=O)OC(C)CCC3)c(F)n1 (single isomer, unassigned) [Example 10-2, (5S*)-2-[6-(ethylamino)-2-fluoropyridin-3-yl]-5-methyl-N-[(3S)-2-oxo-5-phenyl-1,3-dihydro-1,4-benzodiazepin-3-yl]-5,6,7,8-tetrahydropyrazolo[5,1-b][1,3]oxazepine-3-carboxamide] | 0.024 µM | > 25 µM |  | 
3 | CC(C)Nc1ccc(-c2nn3c(c2C(=O)N[C@H]2N=C(c4ccccc4)c4ccccc4NC2=O)OC(C)CCC3)c(F)n1 (single isomer, unassigned) [Example 12-2, (5S*)-2-[2-fluoro-6-(propan-2-ylamino)pyridin-3-yl]-5-methyl-N-[(3S)-2-oxo-5-phenyl-1,3-dihydro-1,4-benzodiazepin-3-yl]-5,6,7,8-tetrahydropyrazolo[5,1-b][1,3]oxazepine-3-carboxamide] | 0.033 µM | > 25 µM |  | 
4 | CC(C)Nc1ccc(-c2nn3c(c2C(=O)N[C@H]2N=C(c4ccccc4)c4cccc(F)c4NC2=O)OC(C)CCC3)c(F)n1 (single isomer, unassigned) [Example 13-2, (5S*)-N-[(3S)-9-fluoro-2-oxo-5-phenyl-1,3-dihydro-1,4-benzodiazepin-3-yl]-2-[2-fluoro-6-(propan-2-ylamino)pyridin-3-yl]-5-methyl-5,6,7,8-tetrahydropyrazolo[5,1-b][1,3]oxazepine-3-carboxamide] | 0.023 µM | > 25 µM |  | 
5 | CC1CCCOc2c(C(=O)NC3N=C(c4ccccc4)c4ccccc4NC3=O)c(-c3ccccc3F)nn21 (single isomer, unassigned) [Example 14-2, (8S*)-2-(2-Fluorophenyl)-8-methyl-N-(2-oxo-5-phenyl-1,3-dihydro-1,4-benzodiazepin-3-yl)-5,6,7,8-tetrahydropyrazolo[5,1-b][1,3]oxazepine-3-carboxamide] | 0.06 µM | > 25 µM |  | 
6 | CC1CCCOc2c(C(=O)NC3N=C(c4ccccc4)c4cccc(F)c4NC3=O)c(-c3ccccc3F)nn21 (single isomer, unassigned) [Example 15-2, (8S*)-N-(9-fluoro-2-oxo-5-phenyl-1,3-dihydro-1,4-benzodiazepin-3-yl)-2-(2-fluorophenyl)-8-methyl-5,6,7,8-tetrahydropyrazolo[5,1-b][1,3]oxazepine-3-carboxamide] | 0.037 µM | > 25 µM |  | 
7 | CC1CCCn2nc(-c3ccc(F)cc3F)c(C(=O)N[C@H]3N=C(c4ccccc4)c4ccccc4NC3=O)c2O1 (single isomer, unassigned) [Example 16-2, (5S*)-2-(2,4-difluorophenyl)-5-methyl-N-[(3S)-2-oxo-5-phenyl-1,3-dihydro-1,4-benzodiazepin-3-yl]-5,6,7,8-tetrahydropyrazolo[5,1-b][1,3]oxazepine-3-carboxamide] | 0.039 µM | > 25 µM |  | 
8 | CC1CCCn2nc(-c3ccc(F)cc3F)c(C(=O)N[C@H]3N=C(c4ccccc4)c4cccc(F)c4NC3=O)c2O1 (single isomer, unassigned) [Example 17-2, (5S*)-2-(2,4-difluorophenyl)-N-[(3S)-9-fluoro-2-oxo-5-phenyl-1,3-dihydro-1,4-benzodiazepin-3-yl]-5-methyl-5,6,7,8-tetrahydropyrazolo[5,1-b][1,3]oxazepine-3-carboxamide] | 0.02 µM | > 25 µM |  | 
9 | CC1CCCOc2c(C(=O)N[C@H]3N=C(c4ccccc4)c4cccc(F)c4NC3=O)c(-c3ccccc3F)nn21 (stereo partly drawn) [Example 15, N-[(3S)-9-fluoro-2-oxo-5-phenyl-1,3-dihydro-1,4-benzodiazepin-3-yl]-2-(2-fluorophenyl)-8-methyl-5,6,7,8-tetrahydropyrazolo[5,1-b][1,3]oxazepine-3-carboxamide] |  |  | 0.064 µM | > 25 µM
10 | CC1CCCn2nc(-c3ccc(F)cc3F)c(C(=O)N[C@H]3N=C(c4ccccc4)c4cccc(F)c4NC3=O)c2O1 (stereo partly drawn) [Example 17, 2-(2,4-Difluorophenyl)-N-[(3S)-9-fluoro-2-oxo-5-phenyl-1,3-dihydro-1,4-benzodiazepin-3-yl]-5-methyl-5,6,7,8-tetrahydropyrazolo[5,1-b][1,3]oxazepine-3-carboxamide] |  |  | 0.027 µM | > 25 µM
11 | CC1CCCn2nc(-c3ccccc3F)c(C(=O)N[C@H]3N=C(c4ccccc4)c4ccccc4NC3=O)c2O1 (stereo partly drawn) [Example 18, 2-(2-Fluorophenyl)-5-methyl-N-[(3S)-2-oxo-5-phenyl-1,3-dihydro-1,4-benzodiazepin-3-yl]-5,6,7,8-tetrahydropyrazolo[5,1-b][1,3]oxazepine-3-carboxamide] |  |  | 0.037 µM | > 25 µM
12 | O=C(N[C@H]1N=C(c2ccccc2)c2cccc(F)c2NC1=O)c1c(-c2ccccc2F)nn2c1SCCCC2 [Example 20, N-[(3S)-9-fluoro-2-oxo-5-phenyl-2,3-dihydro-1H-1,4-benzodiazepin-3-yl]-2-(2-fluorophenyl)-5H,6H,7H,8H-pyrazolo[3,2-b][1,3]thiazepine-3-carboxamide] |  |  | 0.034 µM | > 25 µM
13 | O=C(N[C@H]1N=C(c2ccccc2)c2cccc(F)c2NC1=O)c1c(-c2ccccc2F)nn2c1S(=O)(=O)CCCC2 [Example 21, N-[(3S)-9-fluoro-2-oxo-5-phenyl-2,3-dihydro-1H-1,4-benzodiazepin-3-yl]-2-(2-fluorophenyl)-4,4-dioxo-5H,6H,7H,8H-4λ^6-pyrazolo[3,2-b][1,3]thiazepine-3-carboxamide] |  |  | 0.377 µM | > 25 µM
14 | CCc1ccc(-c2nn3c(c2C(=O)N[C@H]2N=C(c4ccccc4)c4cccc(F)c4NC2=O)OCC(F)(F)CC3)cn1 [Example 22, 2-(6-Ethylpyridin-3-yl)-6,6-difluoro-N-[(3S)-9-fluoro-2-oxo-5-phenyl-2,3-dihydro-1H-1,4-benzodiazepin-3-yl]-5H,6H,7H,8H-pyrazolo[3,2-b][1,3]oxazepine-3-carboxamide] |  |  | 0.103 µM | > 25 µM
15 | CC(C)Nc1ccc(-c2nn3c(c2C(=O)N[C@H]2N=C(c4ccccc4)c4cccc(F)c4NC2=O)OCC(F)(F)CC3)cn1 [Example 23, 6,6-Difluoro-N-[(3S)-9-fluoro-2-oxo-5-phenyl-2,3-dihydro-1H-1,4-benzodiazepin-3-yl]-2-{6-[(propan-2-yl)amino]pyridin-3-yl}-5H,6H,7H,8H-pyrazolo[3,2-b][1,3]oxazepine-3-carboxamide] |  |  | 0.052 µM | > 25 µM
16 | CCC1CCCn2nc(-c3ccccc3F)c(C(=O)N[C@H]3N=C(c4ccccc4)c4ccccc4NC3=O)c2O1 (stereo partly drawn) [Example 24, 5-Ethyl-2-(2-fluorophenyl)-N-[(3S)-2-oxo-5-phenyl-1,3-dihydro-1,4-benzodiazepin-3-yl]-5,6,7,8-tetrahydropyrazolo[5,1-b][1,3]oxazepine-3-carboxamide] |  |  | 0.1 µM | > 25 µM
17 | CCC1CCCn2nc(-c3ccccc3F)c(C(=O)N[C@H]3N=C(c4ccccc4)c4cccc(F)c4NC3=O)c2O1 (stereo partly shown) [Example 25, 5-Ethyl-N-[(3 S)-9-fluoro-2-oxo-5-phenyl-1,3-dihydro-1,4-benzodiazepin-3-yl]-2-(2-fluorophenyl)-5,6,7,8-tetrahydropyrazolo[5,1-b][1,3]oxazepine-3-carboxamide] |  |  | 0.083 µM | > 25 µM
18 | CCC1CCCn2nc(-c3ccc(C)nc3)c(C(=O)N[C@H]3N=C(c4ccccc4)c4ccccc4NC3=O)c2O1 (stereo partly drawn) [Example 26, 5-Ethyl-2-(6-methylpyridin-3-yl)-N-[(3S)-2-oxo-5-phenyl-1,3-dihydro-1,4-benzodiazepin-3-yl]-5,6,7,8-tetrahydropyrazolo[5,1-b][1,3]oxazepine-3-carboxamide] |  |  | 0.59 µM | > 25 µM
19 | CCC1CCCn2nc(-c3ccc(C)nc3)c(C(=O)N[C@H]3N=C(c4ccccc4)c4cccc(F)c4NC3=O)c2O1 (stereo partly shown) [Example 27, 5-Ethyl-N-[(3 S)-9-fluoro-2-oxo-5-phenyl-1,3-dihydro-1,4-benzodiazepin-3-yl]-2-(6-methylpyridin-3-yl)-5,6,7,8-tetrahydropyrazolo[5,1-b][1,3]oxazepine-3-carboxamide] |  |  | 0.394 µM | > 25 µM
20 | CS(=O)(=O)c1ccc(-c2nn3c(c2C(=O)N[C@H]2N=C(c4ccccc4)c4cccc(F)c4NC2=O)OC2CCC3C2)c(F)c1 (stereo partly drawn) [Example 32, 4-(2-Fluoro-4-methylsulfonylphenyl)-N-[(3S)-9-fluoro-2-oxo-5-phenyl-1,3-dihydro-1,4-benzodiazepin-3-yl]-7-oxa-2,3-diazatricyclo[6.2.1.02,6]undeca-3,5-diene-5-carboxamide] |  |  | 0.023 µM | > 25 µM
